Data on one substance can be found in US6841367B2, “Human receptor tyrosine kinase, KDR” (Merck & Co., Inc., priority 1997, dated 2005).

For this test, the system named is KDR. Briefly: Tyrosine autophosphorylation of KDRcyt mutants (antiphosphotyrosine Western blot). Format: biochemical, human. Conditions: 1 mM ATP, 37° C., 10 min; Western blot with antiphosphotyrosine antibody PY20 (FIG. 4A). As to the method: Purified KDRcytE848 and KDRcytV848 were incubated with at concentrations of 12 ng or 120 ng, respectively, or without 1 mM ATP at 37° C. for 10 min. The reaction was stopped by the addition of an equal volume of 2× SDS-PAGE sample buffer and boiled for 5 min. Reaction products were separated by 7.5%/SDS-PAGE and analyzed by Western blot probed with the antiphosphotyrosine antibody PY20 (Transduction Laboratories; FIG. 4A), or an anti-KDR antibody (Santa Cruz Biotechnology; FIG. 4B) visualized using the ECL detection kit and quantified by scanning with a densitometer (Molecular Dynamics).
A general note: A western blot detects proteins with antibodies after separation by electrophoresis.

As to “GST-KDRcytV848: GST fusion of the human KDR cytoplasmic tyrosine kinase domain with Val at position 848 (SEQ ID NO:2)”, the autophosphorylation entry was “resulted in autophosphorylation”.
